# Columns and labels:
# human H1 = molecular target: T1, human H1 (Homo sapiens, UniProt P35367); assay: In vitro histamine receptor cell-based assay (aequorin bioluminescence), H1 antagonism; settings: CHO-K1 cells expressing human H1 and aequorin; histamine at EC80; read-out: H1 Antagonist EC50
# T1 construct: host or cells: CHO-K1
# Protocol: (§1) The cell-based assays utilize an aequorin dependent bioluminescence signal. Doubly-transfected, stable CHO-K1 cell lines expressing human H1 or H4, mitochondrion-targeted aequorin, and (H4 only) human G protein Gα16 are obtained from Perkin-Elmer. Cells are maintained in F12 (Ham's) growth medium, containing 10% (vol./vol.) fetal bovine serum, penicillin (100 IU/mL), streptomycin (0.1 mg/mL), zeocin (0.25 mg/mL) and geneticin (0.40 mg/mL). Cell media components are from Invitrogen, Inc. One day prior to assay, the growth medium is replaced with the same, excluding zeocin and geneticin.
# (§2) For assay preparation, growth medium is aspirated, and cells are rinsed with calcium-free, magnesium-free phosphate-buffered saline, followed by two to three minute incubation in Versene (Invitrogen, Inc.) at 37° C. Assay medium (DMEM:F12 [50:50], phenol-red free, containing 1 mg/mL protease-free bovine serum albumin) is added to collect the released cells, which are then centrifuged. The cell pellet is re-suspended in assay medium, centrifuged once more, and re-suspended in assay medium to a final density of 5×10^6 cells/mL. Coelenterazine-h dye (500 μM in ethanol) is added to a final concentration of 5 μM, and mixed immediately. The conical tube containing the cells is then wrapped with foil to protect the light-sensitive dye. The cells are incubated for four hours further at room temperature (approximately 21° C.) with end-over-end rotation to keep them in suspension.
# (§3) Just before assay, the dye-loaded cells are diluted to 0.75×10^6 cells/mL (H1 receptor) or 1.5×10^6 cells/mL (H4 receptor) with additional assay medium. Cells are dispensed to 1536 well micro-titer plates at 3 μL/well. To assay receptor antagonism, 60 nl of 100× concentration test compounds in 100% dimethyl sulfoxide (DMSO) are dispensed to the wells, one compound per well, by passive pin transfer, and the plates are incubated for 15 minutes at room temperature. Assay plates are then transferred to a Lumilux bioluminescence plate reader (Perkin-Elmer) equipped with an automated 1536 disposable tip pipette. The pipette dispenses 3 μL/well of agonist (histamine, at twice the final concentration, where final concentration is a previously determined EC80) in assay medium, with concurrent bioluminescence detection. Agonist activity of test compounds is excluded by separate assays that measure response to test compounds immediately, without added histamine agonist.
# (§4) CCD image capture on the Lumilux includes a 5 second baseline read prior to agonist addition, and generally a 40 second read per plate after agonist addition. A decrease in bioluminescence signal (measured either as area-under-the-curve, or maximum signal amplitude minus minimum signal amplitude) correlates with receptor antagonism in a dose dependent manner. The negative control is DMSO lacking any test compound. For antagonist assays, the positive controls are diphenhydramine (2-Diphenylmethoxy-N,N-dimethylethylamine, 10 μM final concentration, H1 receptor) or JNJ7777120 (1-[(5-Chloro-1H-indol-2-yl)carbonyl]-4-methyl-piperazine, 10 μM final concentration, H4 receptor). Efficacy is measured as a percentage of positive control activity.
# human H4 = molecular target: T2, human H4 (Homo sapiens, UniProt Q9H3N8); assay: In vitro histamine receptor cell-based assay (aequorin bioluminescence), H4 antagonism; settings: CHO-K1 cells expressing human H4, aequorin and Gα16; histamine at EC80; read-out: H4 Antagonist EC50
# T2 construct: host or cells: CHO-K1
# Protocol: as §1, §2
# as §3, with “Assay plates are then transferred to a Lumilux bioluminescence plate reader (Perkin-Elmer) equipped with an automated 1536 disposable tip pipette.” left out
# as §4
# T1 sequence (P35367 whole entry): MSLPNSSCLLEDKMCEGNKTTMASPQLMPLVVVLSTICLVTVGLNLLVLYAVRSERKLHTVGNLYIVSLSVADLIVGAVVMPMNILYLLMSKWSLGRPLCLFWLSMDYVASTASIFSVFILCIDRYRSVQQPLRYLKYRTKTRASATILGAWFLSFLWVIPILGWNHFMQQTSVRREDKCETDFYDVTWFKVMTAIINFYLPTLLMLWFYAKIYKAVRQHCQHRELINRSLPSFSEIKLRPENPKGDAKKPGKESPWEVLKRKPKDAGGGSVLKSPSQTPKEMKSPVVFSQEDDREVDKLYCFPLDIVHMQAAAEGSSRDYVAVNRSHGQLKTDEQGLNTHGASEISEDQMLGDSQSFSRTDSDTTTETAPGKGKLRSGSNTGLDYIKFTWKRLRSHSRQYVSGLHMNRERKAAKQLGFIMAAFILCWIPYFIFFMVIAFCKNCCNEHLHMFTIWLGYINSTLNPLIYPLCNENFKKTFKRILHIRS
EC50 (human H1) [µM],EC50 (human H4) [µM],Compound
> 10,< 10,"CN1CCN(c2nc3ccc(C(F)(F)F)cc3c3c[nH]nc23)CC1 [Example 157, 4-(4-Methylpiperazinyl)-8-(trifluoromethyl)pyrazolo[3,4-c]quinoline]"
> 10,< 10,"CCc1ccc2nc(N3CCN(C)CC3)n3nc(C)nc3c2c1 [Example 139, 9-ethyl-2-methyl-5-(4-methylpiperazin-1-yl)-[1,2,4]triazolo[1,5-c]quinazoline]"
> 10,< 10,"CN1CCN(c2nc3ccc(Cl)cc3c3ccoc23)CC1 [Example 147, 8-Chloro-4-(4-methylpiperazin-1-yl)furo[2,3-c]quinoline]"
> 10,< 10,"Cc1nc2c3ccc(C(F)(F)F)cc3nc(N3CCNCC3)n2n1 [Example 110, 2-Methyl-5-(piperazin-1-yl)-8-(trifluoromethyl)-[1,2,4]triazolo[1,5-c]quinazoline]"
> 10,< 10,"CN1CCN(c2nc3cc(C(F)(F)F)c(F)cc3n3nnnc23)CC1 [Example 201, 8-fluoro-4-(4-methylpiperazin-1-yl)-7-(trifluoromethyl)tetrazolo[1,5-a]quinoxaline]"
< 10,< 10,"CN1CCN(c2nc3ccc(Cl)cc3c3ocnc23)CC1 [Example 141, 8-chloro-4-(4-methylpiperazin-1-yl)oxazolo[4,5-c]quinoline]"
> 10,< 10,"CN1CCN(c2nc3cc(F)c(C(F)(F)F)cc3n3nnnc23)CC1 [Example 187, 7-fluoro-4-(4-methylpiperazin-1-yl)-8-(trifluoromethyl)tetrazolo[1,5-a]quinoxaline]"
> 10,< 10,"Fc1cc(Cl)cc2c1nc(N1CCNCC1)c1nncn12 [Example 196, 8-chloro-6-fluoro-4-(piperazin-1-yl)-[1,2,4]triazolo[4,3-a]quinoxaline]"
> 10,> 10,"Cc1ccc2nc(N3CCNCC3)n3nc(C)nc3c2c1 [Example 100, 2,9-Dimethyl-5-(piperazin-1-yl)-[1,2,4]triazolo[1,5-c]quinazoline]"
> 10,> 10,"Cn1cnc2c(N3CCNCC3)nc3ccc(Cl)cc3c21 [Example 158, 8-Chloro-1-methyl-4-(piperazin-1-yl)-1H-imidazo[4,5-c]quinoline]"
> 10,< 10,"Fc1c(C(F)(F)F)ccc2nc(N3CCNCC3)c3nncn3c12 [Example 169, 9-fluoro-4-(piperazin-1-yl)-8-(trifluoromethyl)-[1,2,4]triazolo[4,3-a]quinoxaline]"
< 10,< 10,"Cn1cc2c(n1)c(N1CCNCC1)nc1ccc(Cl)cc12 [Example 151, 8-Chloro-2-methyl-4-(piperazin-1-yl)-2H-pyrazolo[3,4-c]quinoline]"
> 10,< 10,"Fc1cc2c(cc1C(F)(F)F)nc(N1CCNCC1)c1nnnn12 [Example 200, 8-fluoro-4-(piperazin-1-yl)-7-(trifluoromethyl)tetrazolo[1,5-a]quinoxaline]"
> 10,< 10,CN1CCN(c2nc3ccc(C(F)(F)F)cc3n3ccnc23)CC1 [Example 177]
> 10,> 10,"Cc1nc2c3ccc(F)cc3nc(N3CCNCC3)n2n1 [Example 108, 8-Fluoro-2-methyl-5-(piperazin-1-yl)-[1,2,4]triazolo[1,5-c]quinazoline]"
> 10,< 10,"Cc1nc2c(N3CCNCC3)nc3ccc(C(F)(F)F)cc3c2o1 [Example 215, 2-methyl-4-(piperazin-1-yl)-8-(trifluoromethyl)oxazolo[4,5-c]quinoline]"
> 10,< 10,"Cc1nc2c3cc(Cl)c(F)cc3nc(N3CCNCC3)n2n1 [Example 96, 9-Chloro-8-fluoro-2-methyl-5-(piperazin-1-yl)-[1,2,4]triazolo[1,5-c]quinazoline]"
< 10,< 10,"CN1CCN(c2nc3cc(Cl)ccc3c3cccnc23)CC1 [Example 249, 8-chloro-5-(4-methylpiperazin-1-yl)benzo[f][1,7]naphthyridine]"

# Second part, the compound before the results:
Compound,EC50 (human H1) [µM],EC50 (human H4) [µM]
"CN1CCN(c2nc3ccc(OC(F)(F)F)cc3n3cnnc23)CC1 [Example 50, 4-(4-methylpiperazin-1-yl)-8-(trifluoromethoxy)-[1,2,4]triazolo[4,3-a]quinoxaline]",> 10,< 10
"C=Cc1ccc2nc(N3CCN(C)CC3)c3nncn3c2c1 [Example 88, 4-(4-methylpiperazin-1-yl)-8-vinyl-[1,2,4]triazolo[4,3-a]quinoxaline]",> 10,< 10
"Clc1ccc2nc(NC3CCNCC3)c3nncn3c2c1 [Example 73, 8-chloro-N-(piperidin-4-yl)-[1,2,4]triazolo[4,3-a]quinoxalin-4-amine]",> 10,> 10
"CN(CCN)c1nc2ccc(Cl)cc2n2cnnc12 [Example 79, N^1-(8-chloro-[1,2,4]triazolo[4,3-a]quinoxalin-4-yl)-N-1-methylethane-1,2-diamine]",> 10,> 10
"CN1CC[C@H](COc2nc3ccc(Cl)cc3n3cnnc23)C1 [Example 76, (S)-8-chloro-4-((1-methylpyrrolidin-3-yl)methoxy)-[1,2,4]triazolo[4,3-a]quinoxaline]",> 10,> 10
"Cc1nc2c3cc(Cl)ccc3nc(N3CCN4CCCC4C3)n2n1 (stereo not shown) [Example 245, 9-chloro-5-(hexahydropyrrolo[1,2-a]pyrazin-2(1H)-yl)-2-methyl-[1,2,4]triazolo[1,5-c]quinazoline]",< 10,< 10
"CN1CCN(c2nc3ccc(Cl)cc3c3nncn23)CC1 [Example 14, 9-chloro-5-(4-methylpiperazin-1-yl)-[1,2,4]triazolo[4,3-c]quinazoline]",< 10,> 10
"Fc1cc2nc(N3CCNCC3)c3nncn3c2cc1F [Example 38, 7,8-difluoro-4-(piperazin-1-yl)-[1,2,4]triazolo[4,3-a]quinoxaline]",> 10,< 10
"Cc1cc2nc(N3CCN(C)CC3)c3nncn3c2cc1F [Example 36, 8-fluoro-7-methyl-4-(4-methylpiperazin-1-yl)-[1,2,4]triazolo[4,3-a]quinoxaline]",> 10,< 10
"Fc1cc2c(cc1C(F)(F)F)nc(N1CCNCC1)c1nncn12 [Example 43, 8-Fluoro-4-(piperazin-1-yl)-7-(trifluoromethyl)-[1,2,4]triazolo[4,3-a]quinoxaline]",> 10,< 10
"CCc1ccc2nc(N3CCN(C)CC3)c3nncn3c2c1 [Example 90, 8-ethyl-4-(4-methylpiperazin-1-yl)-[1,2,4]triazolo[4,3-a]quinoxaline]",> 10,< 10
"Clc1ccc2nc(N3CCNCC3)n3nnnc3c2c1 [Example 12, 9-Chloro-5-(piperazin-1-yl)tetrazolo[1,5-c]quinazoline]",> 10,< 10
"Cc1cc2c(cc1F)nc(N1CCN(C)CC1)c1nncn12 [Example 34, 7-fluoro-8-methyl-4-(4-methylpiperazin-1-yl)-[1,2,4]triazolo[4,3-a]quinoxaline]",> 10,< 10
"Cc1cn2c(n1)c(N1CCN(C)CC1)nc1cc(Cl)ccc12 [Example 11, 7-Chloro-2-methyl-4-(4-methylpiperazin-1-yl)imidazo[1,2-a]quinoxaline]",> 10,< 10
